This note sets out measurements from patent US20250171457A1, “NITROGEN-CONTAINING HETEROCYCLIC COMPOUND HAVING NRF2 ACTIVATION EFFECT” (CHUGAI SEIYAKU KABUSHIKI KAISHA, priority 2022, published 2025).

The assay relates to Nrf2 transcriptional activity (pARE-Luc reporter) in HepG2 cells. The assay can be described thus: In vitro Nrf2 transcriptional activity measurement by ARE-dependent reporter assay in HepG2 cell. Format: cell-based, human. The note with it: Homo sapiens; HepG2 cells transfected with pARE-Luc, 4 hours at 37° C.; luciferase activity of Example 1-54 or Example 17-23 at 3.75 μM defined as 100%. Summed up:
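HepG2 cells transfected with pGL4.37 (pARE-Luc), replated onto compound and incubated 4 h at 37° C; luciferase read by Bright-Glo luminescence. Response normalized to 100% set by a reference compound at 3.75 μM; EC50 from dose-response curve.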
For orientation: A reporter such as luciferase makes a cellular process visible.

A word on the EC50: it is the concentration at which the effect is half-maximal. Consider `C[C@@H]1CN(c2cc(Cl)c(C(=O)N3COc4c(cccc4-c4cc(N5C6CCC5COC6)c(C(=O)O)cc4F)C3)c(Cl)c2)[C@@H](C)CN1C` [Compound 9-6, 4-[3-[2,6-Dichloro-4-[(2S,5R)-2,4,5-trimethylpiperazin-1-yl]benzoyl]-2,4-dihydro-1,3-benzoxazin-8-yl]-5-fluoro-2-(3-oxa-8-azabicyclo[3.2.1]octan-8-yl)benzoic acid], for which the EC50 was found to be 5.7 nM. With `CN1C2CCC1CN(c1cc(Cl)c(C(=O)N3COc4c(cccc4-c4cc(N5C6CCC5COC6)c(C(=O)O)cc4F)C3)c(Cl)c1)C2` [Compound 9-7, 4-[3-[2,6-Dichloro-4-(8-methyl-3,8-diazabicyclo[3.2.1]octan-3-yl)benzoyl]-2,4-dihydro-1,3-benzoxazin-8-yl]-5-fluoro-2-(3-oxa-8-azabicyclo[3.2.1]octan-8-yl)benzoic acid] the figure was 14 nM. As for `CN1CC2CCC(C1)N2c1cc(Cl)c(C(=O)N2COc3c(cccc3-c3cc(N4C5CCC4COC5)c(C(=O)O)cc3F)C2)c(Cl)c1` [Compound 9-8, 4-[3-[2,6-Dichloro-4-(3-methyl-3,8-diazabicyclo[3.2.1]octan-8-yl)benzoyl]-2,4-dihydro-1,3-benzoxazin-8-yl]-5-fluoro-2-(3-oxa-8-azabicyclo[3.2.1]octan-8-yl)benzoic acid], it took 3.5 nM to reach a half-maximal effect (EC50). With `C[C@@H]1CN(c2cc(Cl)c(C(=O)N3COc4c(cccc4-c4cc(N5C6CCC5COC6)c(C(=O)O)cc4F)C3)c(Cl)c2)[C@H](C)CN1C` [Compound 9-9, 4-[3-[2,6-Dichloro-4-[(2R,5R)-2,4,5-trimethylpiperazin-1-yl]benzoyl]-2,4-dihydro-1,3-benzoxazin-8-yl]-5-fluoro-2-(3-oxa-8-azabicyclo[3.2.1]octan-8-yl)benzoic acid] the figure was 1.5 nM; with `CN1CC2CC(C1)N2c1cc(Cl)c(C(=O)N2COc3c(cccc3-c3cc(N4C5CCC4COC5)c(C(=O)O)cc3F)C2)c(Cl)c1` [Compound 9-10, 4-[3-[2,6-Dichloro-4-(3-methyl-3,6-diazabicyclo[3.1.1]heptan-6-yl)benzoyl]-2,4-dihydro-1,3-benzoxazin-8-yl]-5-fluoro-2-(3-oxa-8-azabicyclo[3.2.1]octan-8-yl)benzoic acid], 8.8 nM. With `C[C@@H]1CN(C)[C@@H](C)CN1c1cc(Cl)c(C(=O)N2COc3c(cccc3-c3cc(N4C5CCC4COC5)c(C(=O)O)cc3F)C2)c(Cl)c1` [Compound 9-11, 4-[3-[2,6-Dichloro-4-[(2R,5S)-2,4,5-trimethylpiperazin-1-yl]benzoyl]-2,4-dihydro-1,3-benzoxazin-8-yl]-5-fluoro-2-(3-oxa-8-azabicyclo[3.2.1]octan-8-yl)benzoic acid] the figure was 19 nM; with `C[C@H]1CN(C)CCN1c1cc(Cl)c(C(=O)N2COc3c(cccc3-c3cc(N4C5CCC4COC5)c(C(=O)O)cc3F)C2)c(Cl)c1` [Compound 9-12, 4-[3-[2,6-Dichloro-4-[(2S)-2,4-dimethylpiperazin-1-yl]benzoyl]-2,4-dihydro-1,3-benzoxazin-8-yl]-5-fluoro-2-(3-oxa-8-azabicyclo[3.2.1]octan-8-yl)benzoic acid], 3.1 nM; with `C[C@H]1CN(c2cc(Cl)c(C(=O)N3COc4c(cccc4-c4cc(N5C6CCC5COC6)c(C(=O)O)cc4F)C3)c(Cl)c2)[C@@H](C)CN1C` [Compound 9-13, 4-[3-[2,6-Dichloro-4-[(2S,5S)-2,4,5-trimethylpiperazin-1-yl]benzoyl]-2,4-dihydro-1,3-benzoxazin-8-yl]-5-fluoro-2-(3-oxa-8-azabicyclo[3.2.1]octan-8-yl)benzoic acid], 6.7 nM. `CN1CCN(c2cc(Cl)c(C(=O)N3COc4c(cccc4-c4cc(N5C6CCC5COC6)c(C(=O)O)cc4F)C3)c(Cl)c2)C(C)(C)C1` [Compound 9-14, 4-[3-[2,6-Dichloro-4-(2,2,4-trimethylpiperazin-1-yl)benzoyl]-2,4-dihydro-1,3-benzoxazin-8-yl]-5-fluoro-2-(3-oxa-8-azabicyclo[3.2.1]octan-8-yl)benzoic acid] came in with an EC50 of 11 nM.

With `O=C(O)c1cc(F)c(-c2cccc3c2OCN(C(=O)c2c(Cl)cc(N4CCN(C5COC5)C5CC54)cc2Cl)C3)cc1N1C2CCC1COC2` (stereo not shown) [Compound 9-15, 4-[3-[2,6-Dichloro-4-[5-(oxetan-3-yl)-2,5-diazabicyclo[4.1.0]heptan-2-yl]benzoyl]-2,4-dihydro-1,3-benzoxazin-8-yl]-5-fluoro-2-(3-oxa-8-azabicyclo[3.2.1]octan-8-yl)benzoic acid], the EC50 worked out at 14 nM.

For the compound `C[C@@H]1CN(C2COC2)CCN1c1cc(Cl)c(C(=O)N2COc3c(cccc3-c3cc(N4C5CCC4COC5)c(C(=O)O)cc3F)C2)c(Cl)c1` [Compound 9-16, 4-[3-[2,6-Dichloro-4-[(2R)-2-methyl-4-(oxetan-3-yl)piperazin-1-yl]benzoyl]-2,4-dihydro-1,3-benzoxazin-8-yl]-5-fluoro-2-(3-oxa-8-azabicyclo[3.2.1]octan-8-yl)benzoic acid], the EC50 was determined as 4.8 nM. With `O=C(O)c1cc(F)c(-c2cccc3c2OCN(C(=O)c2c(Cl)cc(N4CC5CCC(C4)N5C4COC4)cc2Cl)C3)cc1N1C2CCC1COC2` [Compound 9-17, 4-[3-[2,6-Dichloro-4-[8-(oxetan-3-yl)-3,8-diazabicyclo[3.2.1]octan-3-yl]benzoyl]-2,4-dihydro-1,3-benzoxazin-8-yl]-5-fluoro-2-(3-oxa-8-azabicyclo[3.2.1]octan-8-yl)benzoic acid] the figure was 7.5 nM; with `O=C(O)c1cc(F)c(-c2cccc3c2OCN(C(=O)c2c(Cl)cc(N4C5CCC4CN(C4COC4)C5)cc2Cl)C3)cc1N1C2CCC1COC2` [Compound 9-18, 4-[3-[2,6-Dichloro-4-[3-(oxetan-3-yl)-3,8-diazabicyclo[3.2.1]octan-8-yl]benzoyl]-2,4-dihydro-1,3-benzoxazin-8-yl]-5-fluoro-2-(3-oxa-8-azabicyclo[3.2.1]octan-8-yl)benzoic acid], 6.4 nM; with `C[C@H]1CN(C2COC2)CCN1c1cc(Cl)c(C(=O)N2COc3c(cccc3-c3cc(N4C5CCC4COC5)c(C(=O)O)cc3F)C2)c(Cl)c1` [Compound 9-19, 4-[3-[2,6-Dichloro-4-[(2S)-2-methyl-4-(oxetan-3-yl)piperazin-1-yl]benzoyl]-2,4-dihydro-1,3-benzoxazin-8-yl]-5-fluoro-2-(3-oxa-8-azabicyclo[3.2.1]octan-8-yl)benzoic acid], 5.9 nM. The compound `O=C(O)c1cc(F)c(-c2cccc3c2OCN(C(=O)c2c(Cl)cc(N4CC5CCC(C4)N5C4CC4)cc2Cl)C3)cc1N1C2CCC1COC2` [Compound 9-20, 4-[3-[2,6-Dichloro-4-(8-cyclopropyl-3,8-diazabicyclo[3.2.1]octan-3-yl)benzoyl]-2,4-dihydro-1,3-benzoxazin-8-yl]-5-fluoro-2-(3-oxa-8-azabicyclo[3.2.1]octan-8-yl)benzoic acid] registered an EC50 of 4.6 nM. Compound `O=C(O)c1cc(F)c(-c2cccc3c2OCN(C(=O)c2c(Cl)cc(N4C5CC4CN(C4CC(F)(F)C4)C5)cc2Cl)C3)cc1N1C2CCC1COC2` [Compound 9-21, 4-[3-[2,6-Dichloro-4-[3-(3,3-difluorocyclobutyl)-3,6-diazabicyclo[3.1.1]heptan-6-yl]benzoyl]-2,4-dihydro-1,3-benzoxazin-8-yl]-5-fluoro-2-(3-oxa-8-azabicyclo[3.2.1]octan-8-yl)benzoic acid] yielded an EC50 of 6 nM.

`CCN1CCN(c2cc(Cl)c(C(=O)N3COc4c(cccc4-c4cc(N5C6CCC5COC6)c(C(=O)O)cc4F)C3)c(Cl)c2)[C@H](C)C1` [Compound 9-22, 4-[3-[2,6-Dichloro-4-[(2R)-4-ethyl-2-methylpiperazin-1-yl]benzoyl]-2,4-dihydro-1,3-benzoxazin-8-yl]-5-fluoro-2-(3-oxa-8-azabicyclo[3.2.1]octan-8-yl)benzoic acid] had an EC50 of 0.9 nM.

`CN1CCN(c2cc(Cl)c(C(=O)N3COc4c(cccc4-c4cc(N5C6CCC5COC6)c(C(=O)O)cc4F)C3)c(Cl)c2)CC1C(F)(F)F` (stereo not shown) [Compound 9-23, 4-[3-[2,6-Dichloro-4-[4-methyl-3-(trifluoromethyl)piperazin-1-yl]benzoyl]-2,4-dihydro-1,3-benzoxazin-8-yl]-5-fluoro-2-(3-oxa-8-azabicyclo[3.2.1]octan-8-yl)benzoic acid]: the EC50 is 3.1 nM. For the compound `CC1C(C)N(c2cc(Cl)c(C(=O)N3COc4c(cccc4-c4cc(N5C6CCC5COC6)c(C(=O)O)cc4F)C3)c(Cl)c2)CCN1C` (stereo not shown) [Compound 9-24, 4-[3-[2,6-Dichloro-4-(2,3,4-trimethylpiperazin-1-yl)benzoyl]-2,4-dihydro-1,3-benzoxazin-8-yl]-5-fluoro-2-(3-oxa-8-azabicyclo[3.2.1]octan-8-yl)benzoic acid], the EC50 amounted to 2.5 nM.

Take `C[C@@H]1CNCCN1c1cc(Cl)c(C(=O)N2COc3c(cccc3-c3cc(N4C5CCC4COC5)c(C(=O)O)cc3F)C2)c(Cl)c1` [Compound 9-25, 4-[3-[2,6-Dichloro-4-[(2R)-2-methylpiperazin-1-yl]benzoyl]-2,4-dihydro-1,3-benzoxazin-8-yl]-5-fluoro-2-(3-oxa-8-azabicyclo[3.2.1]octan-8-yl)benzoic acid]: the EC50 is 8.8 nM. With `CN1CCC2(C1)CN(c1cc(Cl)c(C(=O)N3COc4c(cccc4-c4cc(N5C6CCC5COC6)c(C(=O)O)cc4F)C3)c(Cl)c1)C2` [Compound 10-1, 4-[3-[2,6-Dichloro-4-(7-methyl-2,7-diazaspiro[3.4]octan-2-yl)benzoyl]-2,4-dihydro-1,3-benzoxazin-8-yl]-5-fluoro-2-(3-oxa-8-azabicyclo[3.2.1]octan-8-yl)benzoic acid] the figure was 6.5 nM; with `O=C(O)c1cc(F)c(-c2cccc3c2OCN(C(=O)c2c(Cl)cc(N4CC5(CCN(C6COC6)C5)C4)cc2Cl)C3)cc1N1C2CCC1COC2` [Compound 10-2, 4-[3-[2,6-Dichloro-4-[7-(oxetan-3-yl)-2,7-diazaspiro[3.4]octan-2-yl]benzoyl]-2,4-dihydro-1,3-benzoxazin-8-yl]-5-fluoro-2-(3-oxa-8-azabicyclo[3.2.1]octan-8-yl)benzoic acid], 5.2 nM.
